Test results as given in US8530235B2, “Medium that supports culture of an oocyte and modulation of granulosa cell apoptosis” (Adelaide Research & Innovation Pty Ltd., priority 2005, dated 2013).

What was measured:
mural granulosa cells = test: Mural granulosa cell DNA synthesis, 3H-thymidine incorporation; format: cell-based, marmoset monkey, Callithrix jacchus; conditions: GC from large antral follicles
Experimental: Mural GC from large antral follicles were cultured for 24h and thymidine incorporation was stimulated with 175 ng/ml GDF9. […] Bars/points represent means+/−SEM from 3 replicate experiments expressed as a fold change relative to control.
Follicles were manually excised and separated into 3 size classes: periantral (PA; 0.42-0.66 mm), small antral (SA; 0.66-1.5 mm) and large antral (LA; >1.5 mm). GCs from each follicle size were collected and pooled, then washed twice in bicarbonate-buffered tissue culture medium-199 (B-TCM) supplemented with 0.3 mg/ml of polyvinyl alcohol (PVA, Sigma). Depending on the individual experiments, mural GCs (1×10^5 cells/ml), hormones, inhibitors and media were added to wells of 96-well plates (Falcon) to give a final volume of 125 μl. Within each experiment, all treatments were carried out in at least duplicate wells and each experiment was replicated on at least 3 occasions. Cells were cultured in an atmosphere of 37° C., 96% humidity in 5% CO2 in air for 18 hours, followed by a further 6 hour pulse of 15.4 kBq tritiated thymidine (3H-thymidine, ICN) under the same conditions.
Seven adult female marmosets were primed with […] for 6 days, whole ovaries were removed on day 7, follicles manually excised, and GC were then collected from 3 size classes: periantral (PA; 0.42-0.66 mm), small antral (SA; 0.66-1.5 mm) and large antral (LA; >1.5 mm). Four different approaches were utilized to examine GDF9 function in GC. […] To examine the GDF9 signalling pathway, cultured GC from LA follicles were transfected with either a CAGA-luciferase or BRE-luciferase reporter construct and treated with various TGF-β superfamily growth factors or co-cultured with mouse oocytes. In order to determine the effects of GDF9 on marmoset GC proliferation, we employed a GC bioassay whereby after 24 h ^3H-thymidine incorporation is assessed as an indicator of DNA synthesis and cellular proliferation. […] In another experiment, GC were treated with an increasing dose of SB431542, an activin-like kinase (ALK) 4/5/7 inhibitor, in the presence of GDF9+/−IGF1.

cumulus-oocyte complexes = test: Study IV: oocyte developmental competence after IVM, IVF and embryo culture; format: cell-based, Bovine
Experimental: Unless otherwise specified, all chemicals and reagents were purchased from Sigma (St Louis, Mo.). Bovine ovaries were collected from local abattoirs and transported to the laboratory in warm saline (30-35° C.). COCs were aspirated from antral follicles (3 to 5 mm diameter) using an 18-gauge needle and a 10-ml syringe containing ˜2 ml aspiration medium (Hepes-buffered. Tissue Cultured Medium-199; TCM-199. ICN Biochemicals, Irvine, Calif., USA) supplemented with 50 μg/ml kanamycin, 0.5 mM sodium pyruvate, 50 μg/ml heparin and 4 mg/ml fatty acid-free bovine serum albumin (FAF-BSA; ICPbio Ltd, Aukland, NZ). Intact COCs with compact cumulus vestments>˜5 cell layers and evenly pigmented cytoplasm were selected under a dissecting microscope and washed twice in Hepes-buffered TCM-199 and once in Hepes-buffered TCM-199 supplemented with 10% fetal calf serim (FCS) (Invitrogen, Carlsbad, Calif.). The basic medium for oocyte maturation was Bovine VitroMat (Cook Australia, Eight Mile Plains, Qld, Australia), a medium based on the ionic composition of bovine follicular fluid. […] Complexes were cultured in pre-equilibrated 300 ? l drops overlaid with mineral oil and incubated at 39° C. with 5% CO2 in humidified air for 24 hour. […]
Recombinant mouse GDF9 and recombinant ovine BMP15 were produced and partially purified in-house as previously described using transfected 293 human embryonic kidney cell lines (293H) originally donated by O. Ritvos (University of Helsinki). Control conditioned medium (hereafter designated ‘293H’) was produced from untransfected 293H cells and subjected to the same chromatography procedures as GDF9 and BMP15 conditioned media.
Consequently, SB-431542 potently antagonizes the ALK 4/5 ligands; TGF-β1, the activins and GDF9, without affecting BMP signalling (Inman et al., 2002; Gilchrist et al., 2006). […] Follistatin-288 was generously donated by S. Shimasaki (University of California San Diego, USA) and we have previously shown that this binding protein antagonizes the bioactivities of native OSFs and recombinant BMP15 in CCs.
In vitro production of embryos was undertaken using defined, serum-free media (Bovine Vitro series of media, Cook Australia). Frozen semen from a single bull of proven fertility was used in all experiments. Briefly, thawed semen was layered over a discontinuous (45%: 90%) Percoll gradient (Amersham Bioscience) and centrifuged (RT) for 20-25 mins at 700 g. The supernatant was removed and the sperm pellet was washed with 500 μl Bovine VitroWash (Cook Australia) and centrifuged for a further 5 minutes at 200 g. Spermatozoa were resuspended with IVF medium (Bovine VitroFert, Cook Australia), then added to the fertilization media drops (Bovine VitroFert, supplemented with 0.01 mM heparin, 0.2 mM penicillamine and 0.1 mM hypotaurine) at a final concentration of 1×106 spermatozoa/ml. COCs were inseminated at a density of 10 μl of IVF medium per COC for 24 h, at 39° C. in 6% CO2 in humidified air.
CCs were removed by gentle pipetting 23-24 h post insemination and five presumptive zygotes were transferred into 20 μl drops of pre-equilibrated Cook Bovine VitroCleave medium (Cook Australia) and cultured under mineral oil at 38.5° C. in 7% O2, 6% CO2, balance N2, for five days (day 1 to day 5).
On Day 5, embryos were transferred in groups of 5-6 to 20 μl drops of pre-equilibrated Bovine VitroBlast (Cook Australia) at 38.5° C. overlaid with mineral oil and cultured to Day 8. Embryos were assessed for quality at Day 8 according to the definitions presented in the Manual of the International Embryo Transfer Society (Stringfellow, 1998) and were performed independently and blinded by an experienced bovine embryologist.
Cell counts were performed using a modified version of the technique described by (Fouladi-Nashta et al., 2005). […]

[1] = test system: activin receptor-like kinases (ALKs) 4, 5 and 7; conditions: competitive ATP binding site kinase inhibitor; without effecting ALKs 1, 2, 3 or 6 or other cellular kinases; cited from earlier work

## NC(=O)c1ccc(-c2nc(-c3ccc4c(c3)OCO4)c(-c3ccccn3)[nH]2)cc1 [SB-431542, reference compound]
Mural granulosa cells; 175 ng/ml GDF9, 24 h
  DNA synthesis stimulated by GDF9 in the presence of inhibitor: dose-dependently inhibited
Mural granulosa cells; 1 μM
  stimulatory effects of GDF9 on DNA synthesis at 1 μM inhibitor: completely eliminate
cumulus-oocyte complexes; 4 μM SB-431542 or 10 μg/ml follistatin-288, compared to untreated COCs
  blastocyst development of control COCs treated with antagonist: significantly (P<0.05) decreased
cumulus-oocyte complexes; Experiments 3 & 4, 4 μM SB-431542, 175 ng/ml GDF9, 10% v/v BMP15, 10% v/v 293H
  effect on cleavage rate: no influence
cumulus-oocyte complexes; SB-431542 against GDF9, follistatin against BMP15
  increase of blastocyst yields by GDF9 or BMP15 on addition of the respective antagonist: ablated
[1]
  kinase selectivity: specifically antagonizing the activities of activin receptor-like kinases (ALKs) 4, 5 and 7
